Reference: patent US12686692B2, “KRas G12D inhibitors” (Mirati Therapeutics, Inc., priority 2020, dated 2026)

Tests used:
KRas G12D [1] = target: T1, KRas G12D (Homo sapiens, UniProt P01116, G12D); assay: KRas G12D Surface Plasmon Resonance (SPR) Binding Assay; settings: Biacore T200, biotinylated Avidin-tagged KRAS protein on SA chip, 20 C, 1:1 binding model
Procedure: This Example illustrates that exemplary compounds of the present invention bind to KRas G12D as measured by surface plasmon resonance (SPR). Briefly, 1 L of 1.05×HBS-Mg buffer (262.5 mM BioUltra Hepes, pH 7.5, 157.5 mM NaCl, 105 mM MgCl2, 0.525 mM TCEP, […] Brij-35) was prepared and filter sterilized using a 0.22 μm bottle top filter. Approximately 50 mL of 1.05×HBS-Mg buffer was removed and saved for future dilutions. A 50 mL aliquot of DMSO (Sigma Aldrich DMSO Lot. #SHBK2079) was added and continued to stir for 10 minutes, creating the final 1.0×HBS-Mg buffer (250 mM BioUltra Hepes pH 7.5, 150 mM NaCl, 100 mM MgCl2, 0.5 mM TCEP, 0.03% Brij-35). Biacore T200 instrument was primed using 1.0×HBS-Mg buffer before docking a GE Streptavidin (SA) chip and then primed two additional times prior to beginning the immobilization step. All immobilized protein mixtures were created using 3-5 mg/mL Biotinylated Avidin-tagged KRAS protein using the following immobilization settings: SA chip type, 1 flow cells per cycle, 720 second contact time, and 5 μL/min flow rate. Normalization of the detector was also performed during the immobilization step using the GE BiaNormalize solution. All compounds were diluted to 10 mM in 100% DMSO prior to being diluted 20× in 1.05× buffer. Another 10× dilution was created using 1.0× buffer prior to performing a series of 3× dilutions to create a compound concentration curve using the following assay settings: 20 C analysis temperature, General Settings=10 Hz data collection rate and multi-detection; Assay Steps=all set to LMW kinetics; Cycle Types=LMW kinetics (60s contact time, 120s dissociation time, 100 μL/min flow rate, extra wash after injection with 50% DMSO, flow path 1,2,3,4); Flow path detection=2-1, 4-3). Data evaluation was performed using the Biacore T200 Evaluation software and data fit to 1:1 binding model.
Target sequence in this assay (P01116 1-188 isoform P01116-2 G12D): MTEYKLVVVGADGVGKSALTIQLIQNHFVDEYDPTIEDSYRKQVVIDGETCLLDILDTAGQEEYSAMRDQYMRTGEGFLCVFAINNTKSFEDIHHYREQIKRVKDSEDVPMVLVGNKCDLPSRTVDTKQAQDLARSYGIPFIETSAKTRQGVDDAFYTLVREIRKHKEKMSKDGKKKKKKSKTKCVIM

[2] = system: KRas G12D-mediated Phosphorylation of ERK; assay: Inhibition of KRas G12D-mediated Phosphorylation of ERK in AGS cells; format: cell-based; settings: Homo sapiens; AGS cells expressing G12D, 3 hours, phospho-ERK normalized to GAPDH
How it was run: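 AGS cells (endogenous KRas G12D) were treated with compounds for 3 h in 0.5% DMSO, then fixed, permeabilized and immunostained. The phospho-ERK (Thr202/Tyr204) signal was normalized to GAPDH in-cell by infrared detection and expressed as % of DMSO control. IC50 came from a 4-parameter fit.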

KRas G12D [3] = target: T1, KRas G12D; assay: KRas G12D Binding Assay (TR-FRET displacement of labeled tracer); design: corresponding to amino acids 1:169, produced at Array BioPharma; biotin (protein is biotinylated); settings: TR-FRET displacement of Cy5 labelled tracer, biotinylated GDP-loaded KRAS G12D (aa 1:169), 60 minute incubation at 22° C.
How it was run: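 Biotinylated GDP-loaded human KRAS G12D (aa 1–169) incubated with Cy5 tracer, Eu-streptavidin and compound (2% DMSO final) in 50 mM HEPES pH 7.5, 5 mM MgCl2, 0.005% Tween-20, 1 mM DTT, 60 min at 22 °C. TR-FRET ratio converted to percent of control; IC50 at 50 POC from 4-parameter logistic fit.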
Target sequence in this assay (P01116 1-169 isoform P01116-2 G12D): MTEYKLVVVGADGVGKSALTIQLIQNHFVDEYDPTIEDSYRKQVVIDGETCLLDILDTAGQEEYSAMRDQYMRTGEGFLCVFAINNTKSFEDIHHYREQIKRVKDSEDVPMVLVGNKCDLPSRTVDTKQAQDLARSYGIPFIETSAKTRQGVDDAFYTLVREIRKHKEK

SMILES: CN1CCC[C@H]1COc1nc2c(c(N3CC4CCC(C)(C3)N4)n1)CCN(c1cc(O)cc3ccccc13)C2 (stereo partly drawn) [Example 61, 4-(4-(1-methyl-3,8-diazabicyclo[3.2.1]octan-3-yl)-2-(((S)-1-methylpyrrolidin-2-yl)methoxy)-5,8-dihydropyrido[3,4-d]pyrimidin-7(6H)-yl)naphthalen-2-ol]
- Kd (KRas G12D [1]): 176 nM
- IC50 [2]: 6880 nM
- IC50 (KRas G12D [3]): 184 nM

SMILES: CN1CCC[C@H]1COc1nc2c(c(N3C[C@H]4CC[C@@H](C3)N4)n1)CCN(c1c(F)ccc(F)c1C(F)F)C2 [Example 76, 4-((1R,5S)-3,8-diazabicyclo[3.2.1]octan-3-yl)-7-(2-(difluoromethyl)-3,6-difluorophenyl)-2-(((S)-1-methylpyrrolidin-2-yl)methoxy)-5,6,7,8-tetrahydropyrido[3,4-d]pyrimidine]
- Kd (KRas G12D [1]): 97000 nM
- IC50 [2]: > 16700 nM
- IC50 (KRas G12D [3]): > 10000 nM

SMILES: CN1CCC[C@H]1COc1nc2c(c(N3C[C@H]4CC[C@@H](C3)N4)n1)CCN(c1cncc3cccc(Cl)c13)C2 [Example 58, 4-((1R,5S)-3,8-diazabicyclo[3.2.1]octan-3-yl)-7-(5-chloroisoquinolin-4-yl)-2-(((S)-1-methylpyrrolidin-2-yl)methoxy)-5,6,7,8-tetrahydropyrido[3,4-d]pyrimidine]
- Kd (KRas G12D [1]): 438 nM
- IC50 [2]: > 16700 nM
- IC50 (KRas G12D [3]): 283 nM

SMILES: CN1CCC[C@H]1COc1nc2c(c(N3C[C@H]4CC(CCO)[C@@H](C3)N4)n1)CCN(c1cccc3cccc(Cl)c13)C2 (stereo partly drawn) [Example 91, 2-((1R,5S)-3-(7-(8-chloronaphthalen-1-yl)-2-(((S)-1-methylpyrrolidin-2-yl)methoxy)-5,6,7,8-tetrahydropyrido[3,4-d]pyrimidin-4-yl)-3,8-diazabicyclo[3.2.1]octan-6-yl)ethan-1-ol]
- Kd (KRas G12D [1]): 176 nM
- IC50 [2]: > 16700 nM
- IC50 (KRas G12D [3]): 78.4 nM

SMILES: C[C@@H]1CC2CN(c3nc(OC[C@@H]4CCCN4C)nc4c3CCN(c3cccc5cccc(Cl)c35)C4)C[C@H]1N2 (single isomer, unassigned) [Example 87]
- Kd (KRas G12D [1]): 705 nM
- IC50 [2]: 13400 nM
- IC50 (KRas G12D [3]): 271 nM

SMILES: Cc1cccc(N2CCc3c(nc(OCC45CCCN4CCC5)nc3N3C[C@H]4CC[C@@H](C3)N4)C2)c1C(F)(F)F [Example 64, 4-((1R,5S)-3,8-diazabicyclo[3.2.1]octan-3-yl)-7-(3-methyl-2-(trifluoromethyl)phenyl)-2-((tetrahydro-1H-pyrrolizin-7a(5H)-yl)methoxy)-5,6,7,8-tetrahydropyrido[3,4-d]pyrimidine]
- Kd (KRas G12D [1]): 67.3 nM
- IC50 [2]: > 16700 nM
- IC50 (KRas G12D [3]): 13 nM

SMILES: FC1CN2CCCC2(COc2nc3c(c(N4CC5CC(F)C(C4)N5)n2)CCN(c2cccc4cccc(Cl)c24)C3)C1 (racemic) [Example 44, 7-(8-chloronaphthalen-1-yl)-4-(6-fluoro-3,8-diazabicyclo[3.2.1]octan-3-yl)-2-((2-fluorotetrahydro-1H-pyrrolizin-7a(5H)-yl)methoxy)-5,6,7,8-tetrahydropyrido[3,4-d]pyrimidine]
- Kd (KRas G12D [1]): 43.9 nM
- IC50 [2]: 9030 nM
- IC50 (KRas G12D [3]): 43.5 nM

SMILES: CN1CCC[C@H]1COc1nc2c(c(N3C[C@H]4CC[C@@H](C3)N4)n1)CCN(c1cccc3cccc(CCC#N)c13)C2 [Example 80, 3-(8-(4-((1R,5S)-3,8-diazabicyclo[3.2.1]octan-3-yl)-2-(((S)-1-methylpyrrolidin-2-yl)methoxy)-5,8-dihydropyrido[3,4-d]pyrimidin-7(6H)-yl)naphthalen-1-yl)propanenitrile]
- Kd (KRas G12D [1]): 617 nM
- IC50 [2]: 11100 nM

SMILES: CC(Oc1nc2c(c(N3C[C@H]4CC[C@@H](C3)N4)n1)CCN(c1cc(O)c(Cl)c3ccccc13)C2)[C@@H]1CCCN1 (stereo partly drawn) [Example 26, 4-(4-((1R,5S)-3,8-diazabicyclo[3.2.1]octan-3-yl)-2-(1-((S)-pyrrolidin-2-yl)ethoxy)-5,8-dihydropyrido[3,4-d]pyrimidin-7(6H)-yl)-1-chloronaphthalen-2-ol]
- Kd (KRas G12D [1]): 325 nM
- IC50 [2]: > 16700 nM
